Test results: ChEMBL document CHEMBL1201862, “PubChem BioAssay data set” (2004)
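Step 1: Grow cells in 96-well plates. Step 2: Expose to compound for 48 hours at 5 concentrations. Step 3: Interpolate endpoints linearly; if unreached, use highest concentration. Abbreviation: GI50, concentration required for 50% inhibition of growth.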 Active and inactive are the calls of the source. Cut-off read from the data, not from the text of the source: active = GI50 up to about 1.1 µM and inactive = higher.

Assays:
Assay in all cases: DTP human tumour cell line panel, 48 h
LOX IMVI = test system: LOX IMVI
OVCAR-3 = test system: OVCAR-3
NCI-H226 = test system: NCI-H226
U-251 = test system: U-251
T47D = test system: T47D
SK-MEL-28 = test system: SK-MEL-28
OVCAR-5 = test system: OVCAR-5
SNB-75 = test system: SNB-75
M14 = test system: M14
EKVX = test system: EKVX
Malme-3M = test system: Malme-3M
CCRF-CEM = test system: CCRF-CEM
TK-10 = test system: TK-10
BT-549 = test system: BT-549
NCI-H23 = test system: NCI-H23
SF-295 = test system: SF-295
ACHN = test system: ACHN
SK-OV-3 = test system: SK-OV-3
HOP-62 = test system: HOP-62
SK-MEL-2 = test system: SK-MEL-2

Row | SMILES | GI50 (LOX IMVI) | GI50 (OVCAR-3) | GI50 (NCI-H226) | GI50 (U-251) | GI50 (T47D) | GI50 (SK-MEL-28) | GI50 (OVCAR-5) | GI50 (SNB-75) | GI50 (M14) | GI50 (EKVX) | GI50 (Malme-3M) | GI50 (CCRF-CEM) | GI50 (TK-10) | GI50 (BT-549) | GI50 (NCI-H23) | GI50 (SF-295) | GI50 (ACHN) | GI50 (SK-OV-3) | GI50 (HOP-62) | GI50 (SK-MEL-2)
1 | C=CCOC(=O)/C(=C\c1ccc(OC)c(OC)c1)c1ccc(OC)c(OC)c1 | > 10 µM (inactive) | > 100 µM (inactive) | > 100 µM (inactive) | 52.4 µM (inactive) | 29.8 µM (inactive) | 33.1 µM (inactive) | > 100 µM (inactive) | 1.66 µM (inactive) | > 100 µM (inactive) | 88.5 µM (inactive) | 91.6 µM (inactive) | 30.8 µM (inactive) | 61.2 µM (inactive) | > 100 µM (inactive) | 39.2 µM (inactive) | 52.1 µM (inactive) | 56.2 µM (inactive) | > 100 µM (inactive) | > 100 µM (inactive) | 47.9 µM (inactive)
2 | C[C@@H]1C(=O)C[C@H]2C(C)(C)CCC[C@]2(C)[C@@]1(O)CCc1ccoc1 | > 100 µM (inactive) | > 100 µM (inactive) | 13.4 µM (inactive) | > 100 µM (inactive) | 82 µM (inactive) | > 100 µM (inactive) | > 100 µM (inactive) | > 100 µM (inactive) | > 100 µM (inactive) | > 100 µM (inactive) | > 100 µM (inactive) | > 100 µM (inactive) | > 100 µM (inactive) | > 100 µM (inactive) | > 100 µM (inactive) | > 100 µM (inactive) | > 100 µM (inactive) | > 100 µM (inactive) | > 100 µM (inactive) | > 100 µM (inactive)
3 | CC(C)[C@H](NC(=O)[C@H](N)Cc1ccc(N(CCCl)CCCl)cc1)C(=O)O | > 100 µM (inactive) | > 100 µM (inactive) | > 100 µM (inactive) | > 100 µM (inactive) | > 100 µM (inactive) | > 100 µM (inactive) | > 100 µM (inactive) | > 100 µM (inactive) | > 100 µM (inactive) | > 100 µM (inactive) | > 100 µM (inactive) | 78.7 µM (inactive) | > 100 µM (inactive) | > 100 µM (inactive) | > 100 µM (inactive) | > 100 µM (inactive) | > 100 µM (inactive) | > 100 µM (inactive) | > 100 µM (inactive) | > 100 µM (inactive)
4 | CCOC(=O)c1c(C)n(-c2ccc(Cl)cc2)c2c1cc(O)c1[nH]c3c(c12)CCCC3 | 29.4 µM (inactive) | 54.2 µM (inactive) | > 100 µM (inactive) | 38.3 µM (inactive) | > 100 µM (inactive) | 33.2 µM (inactive) | > 100 µM (inactive) | 44 µM (inactive) | 57.3 µM (inactive) | 75.7 µM (inactive) | 80.2 µM (inactive) | 32.4 µM (inactive) | > 100 µM (inactive) | 52.7 µM (inactive) | 48.6 µM (inactive) | 52.8 µM (inactive) | 46.3 µM (inactive) | > 100 µM (inactive) | > 100 µM (inactive) | 29.6 µM (inactive)
5 | CC(=O)[C@]1(O)Cc2c(O)c3c(c(O)c2[C@@H](OC2CC(N)C(O)C(C)O2)C1)C(=O)c1c(OCc2ccccc2)cccc1C3=O (stereo not given in full) | 0.604 µM (active) | 2.06 µM (inactive) | 1.09 µM (active) | 1.07 µM (active) | 2.32 µM (inactive) | 1.54 µM (inactive) | 2.07 µM (inactive) | 3.48 µM (inactive) | 1.49 µM (inactive) | 3.05 µM (inactive) | 3.33 µM (inactive) | 0.202 µM (active) | 9.75 µM (inactive) | 3.76 µM (inactive) | 1.64 µM (inactive) | 1.23 µM (inactive) | 0.946 µM (active) | 4.06 µM (inactive) | 1.84 µM (inactive) | 17.4 µM (inactive)
6 | CC(C)N(CCCNc1c2ccccc2nc2cccc([N+](=O)[O-])c12)C(C)C | < 0.0206 µM (active) | < 0.023 µM (active) | 0.0481 µM (active) | < 0.0163 µM (active) | < 0.0269 µM (active) | < 0.01 µM (active) | < 0.0191 µM (active) | < 0.044 µM (active) | 0.0125 µM (active) | < 0.015 µM (active) | < 0.0214 µM (active) | < 0.0173 µM (active) | < 0.0205 µM (active) | < 0.0196 µM (active) | < 0.0108 µM (active) | < 0.0152 µM (active) | < 0.0126 µM (active) | < 0.0326 µM (active) | < 0.0191 µM (active) | 0.0473 µM (active)
7 | O=[N+]([O-])c1ccc2c(Nc3ccccc3-c3ccccc3Nc3c4ccccc4nc4cc([N+](=O)[O-])ccc34)c3ccccc3nc2c1 | 9.57 µM (inactive) | 3.18 µM (inactive) | 4.11 µM (inactive) | 2.94 µM (inactive) | 7.24 µM (inactive) | 24.2 µM (inactive) | 25.9 µM (inactive) | 4.19 µM (inactive) | 2.92 µM (inactive) | 11.8 µM (inactive) | 8.63 µM (inactive) | 3.88 µM (inactive) | 4.46 µM (inactive) | 1.16 µM (inactive) | 10.8 µM (inactive) | 5.4 µM (inactive) | 3.17 µM (inactive) | 13.2 µM (inactive) | 9.33 µM (inactive) | 2.03 µM (inactive)
8 | O=[N+]([O-])c1ccc(O)c(/C=N/c2nc(-c3ccccc3)cs2)c1 | 15.8 µM (inactive) | 35.2 µM (inactive) | 24.7 µM (inactive) | 32.2 µM (inactive) | 24.3 µM (inactive) | 31.9 µM (inactive) | 31.6 µM (inactive) | 23 µM (inactive) | 29.4 µM (inactive) | 31.3 µM (inactive) | 24.8 µM (inactive) | 43.3 µM (inactive) | 42.5 µM (inactive) | 17.1 µM (inactive) | 20.3 µM (inactive) | 33.1 µM (inactive) | 31.4 µM (inactive) | 32.5 µM (inactive) | 26.7 µM (inactive) | 24.4 µM (inactive)
